Laboratory results: patent US12135333B2, “Detection kit for detecting immunosuppressors in whole blood by high performance liquid chromatography-tandem mass spectrometry and detection method thereof” (Hangzhou Calibra Diagnostics Co., Ltd., priority 2021, dated 2024)

Key:
[1] = 14 d stability at 37° C. of immunosuppressors in sterile bovine blood with vitamin E at different concentrations; type: physicochemical; conditions: for Decline of concentration (in words): vitamin E 1.0 mg/mL and 1.5 mg/mL
[2] = 14 d stability at 37° C. of immunosuppressors in the system suitability solution with different antioxidants (LC-MS/MS peak area); type: physicochemical; conditions: for Change of content (in words): not adding an antioxidant, system suitability solution and internal standard solution
From the text: (§1) Supernatant was taken and detected by high performance liquid chromatography-tandem mass spectrometry; and a spectrogram of the standard curve at the lowest point was shown in FIG. 1. Specific analysis conditions were as follows: gradient elution was used to an instrumental method; and the tandem mass spectrum: electrospray ionization (ESI) ion source and positive ion Multiple Reaction Monitoring (MRM) Mode were taken.
(§2) Antioxidants included 2,6-di-tert-butyl-p-cresol, vitamin E, vitamin C, β-carotene, and sodium metabisulfite.

[3] = 14 d stability at 37° C. of isotope internal standards in the internal standard solution with different antioxidants (LC-MS/MS peak area); type: physicochemical
From the text: as §1, §2

[4] = in vitro experiments; cited from earlier work
[5] = 14 d at 37° C., vitamin E 0.5 mg/mL
[6] = 14 d at 37° C., vitamin E 1.0 mg/mL
[7] = 14 d at 37° C., vitamin E 1.5 mg/mL
[8] = 14 d at 37° C., antioxidant 2,6-di-tert-butyl-p-cresol
[9] = 14 d at 37° C., antioxidant Sodium metabisulfite
[10] = 14 d at 37° C., antioxidant Vitamin C
[11] = 14 d at 37° C., antioxidant Vitamin E
[12] = 14 d at 37° C., antioxidant β-carotene
[13] = 14 d at 37° C., free of adding antioxidant
[14] = 14 d at 37° C., antioxidant P-carotene

Row | Sample detection concentration [1, 5] [ng/mL] | Sample detection concentration [1, 6] [ng/mL] | Decline of concentration (in words) ([1]; 14 d at 37° C.) | Sample detection concentration [1, 7] [ng/mL] | Sample detection concentration ([1]; Initial values) [ng/mL] | Peak area of system suitability solution [2, 8] | Peak area of system suitability solution [2, 9] | Peak area of system suitability solution [2, 10] | Peak area of system suitability solution [2, 11] | Peak area of system suitability solution [2, 12] | Peak area of system suitability solution [2, 13] | Change of content (in words) ([2]; 14 d at 37° C.) | Peak area of system suitability solution ([2]; Initial values) | Peak area of internal standard solution [3, 8] | Peak area of internal standard solution [3, 14] | Peak area of internal standard solution [3, 9] | Peak area of internal standard solution [3, 10] | Peak area of internal standard solution [3, 11] | Peak area of internal standard solution [3, 13] | Peak area of internal standard solution ([3]; Initial values) | SMILES | also measured
1 | 62.1 | 75.3 | no obvious decline | 75.7 | 80.1 | 3533 | 6256 | 11782 | 98290 | 3599 | 2401 | almost dropped dramatically | 111146 | – | – | – | – | – | – | – | CO[C@H]1C[C@@H]2CC[C@@H](C)[C@@](O)(O2)C(=O)C(=O)N2CCCC[C@H]2C(=O)O[C@H]([C@H](C)C[C@@H]2CC[C@@H](OCCO)[C@H](OC)C2)CC(=O)[C@H](C)/C=C(\C)[C@@H](O)[C@@H](OC)C(=O)[C@H](C)C[C@H](C)/C=C/C=C/C=C/1C [Everolimus] | Decrease of concentration [1, 5]: 22.5%
2 | – | – | – | – | – | – | – | – | – | – | – | – | – | 7033 | 3308 | 5301 | 6664 | 62889 | 3768 | 71424 | [2H]C([2H])([2H])O[C@H]1C[C@@H]2CC[C@@H](C)[C@@](O)(O2)C(=O)C(=O)N2CCCC[C@H]2C(=O)O[C@H]([C@H](C)C[C@@H]2CC[C@@H](O)[C@H](OC)C2)CC(=O)[C@H](C)/C=C(\C)[C@@H](O)[C@@H](OC)C(=O)[C@H](C)C[C@H](C)/C=C/C=C/C=C/1C [Sirolimus-d3, sirolimus-d3] | –
3 | – | – | – | – | – | – | – | – | – | – | – | – | – | 28579 | 5494 | 5764 | 25618 | 53397 | 6069 | 60178 | [2H][13C]([2H])=CC[C@@H]1/C=C(\C)C[C@H](C)C[C@H](OC)[C@H]2O[C@@](O)(C(=O)C(=O)N3CCCC[C@H]3C(=O)O[C@H](/C(C)=C/[C@@H]3CC[C@@H](O)[C@H](OC)C3)[C@H](C)[C@@H](O)C([2H])([2H])C1=O)[C@H](C)C[C@@H]2OC [Tacrolimus-13C-d4, tacrolimus-13C-d4] | –
4 | 73.3 | 80.1 | no obvious decline | 79.0 | 79.7 | 27771 | 8044 | 30470 | 69879 | 8659 | 7408 | almost dropped dramatically | 74430 | – | – | – | – | – | – | – | C=CC[C@@H]1/C=C(\C)C[C@H](C)C[C@H](OC)[C@H]2O[C@@](O)(C(=O)C(=O)N3CCCC[C@H]3C(=O)O[C@H](/C(C)=C/[C@@H]3CC[C@@H](O)[C@H](OC)C3)[C@H](C)[C@@H](O)CC1=O)[C@H](C)C[C@@H]2OC [Tacrolimus] | Immunological competence relative to cyclosporine A [4]: 50-100 times
